# Source: ChEMBL document CHEMBL3885881, “DrugMatrix”
# Species on record: Rattus norvegicus
# Test: DrugMatrix - Regimen: Daily Repeat
# Type: toxicity, organism-based, Sprague-Dawley
# Parameters: regimen Daily Repeat, gender Male, age 6-8 weeks
# Settings: in vivo, po, route oral GAVAGE, vehicle .5 % CMC; for ABSOLUTE BASOPHIL / ABSOLUTE EOSINOPHIL / ABSOLUTE LYMPHOCYTE / ABSOLUTE MONOCYTE / ABSOLUTE SEGMENTED NEUTROPHIL / BASOPHIL / EOSINOPHIL / ERYTHROCYTE COUNT / HEMATOCRIT / HEMOGLOBIN / LEUKOCYTE COUNT / LYMPHOCYTE / MEAN CORPUSCULAR HEMOGLOBIN / MEAN CORPUSCULAR HEMOGLOBIN CONCENTRATION / MEAN CORPUSCULAR VOLUME / MONOCYTE / NEUTROPHIL / NUCLEATED RED BLOOD CELLS / PLATELET COUNT: tissue Blood; for ALANINE AMINOTRANSFERASE / ALBUMIN / ALKALINE PHOSPHATASE / ASPARTATE AMINOTRANSFERASE / BLOOD UREA NITROGEN / CARBON DIOXIDE / CHLORIDE / CHOLESTEROL / CREATINE PHOSPHOKINASE / CREATININE / GLUCOSE / LACTATE DEHYDROGENASE / LIPASE / PHOSPHORUS / POTASSIUM / SODIUM / TOTAL BILIRUBIN / TOTAL PROTEIN / URIC ACID: tissue Plasma
# [1] = 17 mg/kg, 120 h, dose level Low, time 5 day
# [2] = 85 mg/kg, 72 h, dose level High, time 3 day
# [3] = 85 mg/kg, 120 h, dose level High, time 5 day
smiles,measurement,setting,value
CN1CCN(CCCN2c3ccccc3Sc3ccc(Cl)cc32)CC1 [PROCHLORPERAZINE],ABSOLUTE BASOPHIL,[1],0 CELLS/uL
same,ABSOLUTE EOSINOPHIL,[1],40 CELLS/uL
same,ABSOLUTE LYMPHOCYTE,[1],12867.33 CELLS/uL
same,ABSOLUTE MONOCYTE,[1],40 CELLS/uL
same,ABSOLUTE SEGMENTED NEUTROPHIL,[1],986 CELLS/uL
same,BASOPHIL,[1],0%
same,EOSINOPHIL,[1],0.33%
same,ERYTHROCYTE COUNT,[1],5.56 x10E6/uL
same,HEMATOCRIT,[1],36.13%
same,HEMOGLOBIN,[1],14.37 G/DL
same,LEUKOCYTE COUNT,[1],13.93 x10E3/uL
same,LYMPHOCYTE,[1],92.33%
same,MEAN CORPUSCULAR HEMOGLOBIN,[1],25.87 pg
same,MEAN CORPUSCULAR HEMOGLOBIN CONCENTRATION,[1],39.77 G/DL
same,MEAN CORPUSCULAR VOLUME,[1],65.13 fL
same,MONOCYTE,[1],0.33%
same,NEUTROPHIL,[1],7%
same,NUCLEATED RED BLOOD CELLS,[1],0 /100WBC
same,PLATELET COUNT,[1],1289.67 x10E3/uL
same,ALANINE AMINOTRANSFERASE,[1],45.33 u/L
same,ALBUMIN,[1],4.27 G/DL
same,ALKALINE PHOSPHATASE,[1],464.33 u/L
same,ASPARTATE AMINOTRANSFERASE,[1],85 u/L
same,BLOOD UREA NITROGEN,[1],15.33 mg/dL
same,CARBON DIOXIDE,[1],27.33 mmol/L
same,CHLORIDE,[1],100.67 MEQ/L
same,CHOLESTEROL,[1],75.67 mg/dL
same,CREATINE PHOSPHOKINASE,[1],372 u/L
same,CREATININE,[1],0.12 mg/dL
same,GLUCOSE,[1],141.67 mg/dL
same,LACTATE DEHYDROGENASE,[1],401 u/L
same,LIPASE,[1],9 u/L
same,PHOSPHORUS,[1],12.43 mg/dL
same,POTASSIUM,[1],6.4 MEQ/L
same,SODIUM,[1],143.33 MEQ/L
same,TOTAL BILIRUBIN,[1],0.17 mg/dL
same,TOTAL PROTEIN,[1],6.1 G/DL
same,URIC ACID,[1],1.33 mg/dL
same,ABSOLUTE BASOPHIL,[2],0 CELLS/uL
same,ABSOLUTE EOSINOPHIL,[2],81.33 CELLS/uL
same,ABSOLUTE LYMPHOCYTE,[2],10099 CELLS/uL
same,ABSOLUTE MONOCYTE,[2],0 CELLS/uL
same,ABSOLUTE SEGMENTED NEUTROPHIL,[2],453 CELLS/uL
same,BASOPHIL,[2],0%
same,EOSINOPHIL,[2],0.67%
same,ERYTHROCYTE COUNT,[2],6.34 x10E6/uL
same,HEMATOCRIT,[2],40.77%
same,HEMOGLOBIN,[2],16.03 G/DL
same,LEUKOCYTE COUNT,[2],10.63 x10E3/uL
same,LYMPHOCYTE,[2],95.33%
same,MEAN CORPUSCULAR HEMOGLOBIN,[2],25.3 pg
same,MEAN CORPUSCULAR HEMOGLOBIN CONCENTRATION,[2],39.37 G/DL
same,MEAN CORPUSCULAR VOLUME,[2],64.3 fL
same,MONOCYTE,[2],0%
same,NEUTROPHIL,[2],4%
same,NUCLEATED RED BLOOD CELLS,[2],1 /100WBC
same,PLATELET COUNT,[2],1132 x10E3/uL
same,ALANINE AMINOTRANSFERASE,[2],31.33 u/L
same,ALBUMIN,[2],4.87 G/DL
same,ALKALINE PHOSPHATASE,[2],290 u/L
same,ASPARTATE AMINOTRANSFERASE,[2],67.33 u/L
same,BLOOD UREA NITROGEN,[2],24 mg/dL
same,CARBON DIOXIDE,[2],22.67 mmol/L
same,CHLORIDE,[2],108 MEQ/L
same,CHOLESTEROL,[2],89 mg/dL
same,CREATINE PHOSPHOKINASE,[2],161.33 u/L
same,CREATININE,[2],0.2 mg/dL
same,GLUCOSE,[2],145.67 mg/dL
same,LACTATE DEHYDROGENASE,[2],143.33 u/L
same,LIPASE,[2],8 u/L
same,PHOSPHORUS,[2],11.93 mg/dL
same,POTASSIUM,[2],6.09 MEQ/L
same,SODIUM,[2],150.37 MEQ/L
same,TOTAL BILIRUBIN,[2],0.2 mg/dL
same,TOTAL PROTEIN,[2],7.03 G/DL
same,URIC ACID,[2],2.53 mg/dL
same,ABSOLUTE BASOPHIL,[3],0 CELLS/uL
same,ABSOLUTE EOSINOPHIL,[3],0 CELLS/uL
same,ABSOLUTE LYMPHOCYTE,[3],10951.33 CELLS/uL
same,ABSOLUTE MONOCYTE,[3],241 CELLS/uL
same,ABSOLUTE SEGMENTED NEUTROPHIL,[3],641 CELLS/uL
same,BASOPHIL,[3],0%
same,EOSINOPHIL,[3],0%
same,ERYTHROCYTE COUNT,[3],6.41 x10E6/uL
same,HEMATOCRIT,[3],38.7%
same,HEMOGLOBIN,[3],15.23 G/DL
same,LEUKOCYTE COUNT,[3],11.83 x10E3/uL
same,LYMPHOCYTE,[3],92.67%
same,MEAN CORPUSCULAR HEMOGLOBIN,[3],23.73 pg
same,MEAN CORPUSCULAR HEMOGLOBIN CONCENTRATION,[3],39.33 G/DL
same,MEAN CORPUSCULAR VOLUME,[3],60.37 fL
same,MONOCYTE,[3],2%
same,NEUTROPHIL,[3],5.33%
same,NUCLEATED RED BLOOD CELLS,[3],0 /100WBC
same,PLATELET COUNT,[3],1133 x10E3/uL
same,ALANINE AMINOTRANSFERASE,[3],46.33 u/L
same,ALBUMIN,[3],4.37 G/DL
same,ALKALINE PHOSPHATASE,[3],354.33 u/L
same,ASPARTATE AMINOTRANSFERASE,[3],99.67 u/L
same,BLOOD UREA NITROGEN,[3],21.33 mg/dL
same,CARBON DIOXIDE,[3],24.67 mmol/L
same,CHLORIDE,[3],105.67 MEQ/L
same,CHOLESTEROL,[3],84.67 mg/dL
same,CREATINE PHOSPHOKINASE,[3],760.33 u/L
same,CREATININE,[3],0.23 mg/dL
same,GLUCOSE,[3],146 mg/dL
same,LACTATE DEHYDROGENASE,[3],421 u/L
same,LIPASE,[3],9 u/L
same,PHOSPHORUS,[3],11.03 mg/dL
same,POTASSIUM,[3],6.4 MEQ/L
same,SODIUM,[3],147.97 MEQ/L
same,TOTAL BILIRUBIN,[3],0.27 mg/dL
same,TOTAL PROTEIN,[3],6.17 G/DL
same,URIC ACID,[3],1.8 mg/dL
